Test results reported in the supplement of paper PMC10307832.

Tests used:
Test in all cases: relative viability (nuclei count vs DMSO), 5 days (fraction); higher = more cells survive
[1] = compound: CN[C@@H]1C[C@H]2O[C@@](C)([C@@H]1OC)n1c3ccccc3c3c4c(c5c6ccccc6n2c5c31)C(=O)NC4 [Staurosporine] + CS(=O)(=O)N1CCN(Cc2cc3nc(-c4cccc5[nH]ncc45)nc(N4CCOCC4)c3s2)CC1 [Pictilisib] (partner 1 µM)
Summary of the method: (§1)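 A single step with final 0.05% Triton X-100, 1% formaldehyde and 1 ug/ml Hoechst fixed the cells and stained nuclei 5 days after treatment. Lung cancer cell lines in 1536-well plates had been treated by pin tool the day after seeding with one drug alone or a fixed anchor-drug dose plus five library-drug doses (not always all listed) in √10 steps, and nuclei were counted on 4× images. Relative viability is the ratio of nuclei in treated wells to nuclei in vehicle wells, taken as the median of duplicate plates.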

Sulindac + Trametinib = compound: CC1=C(CC(=O)O)c2cc(F)ccc2/C1=C\c1ccc([S+](C)[O-])cc1 [Sulindac] + CC(=O)Nc1cccc(-n2c(=O)n(C3CC3)c(=O)c3c(Nc4ccc(I)cc4F)n(C)c(=O)c(C)c32)c1 [Trametinib] (partner 0.02 µM)
Summary of the method: as §1

Staurosporine + Olaparib = compound: CN[C@@H]1C[C@H]2O[C@@](C)([C@@H]1OC)n1c3ccccc3c3c4c(c5c6ccccc6n2c5c31)C(=O)NC4 [Staurosporine] + O=C(c1cc(Cc2n[nH]c(=O)c3ccccc23)ccc1F)N1CCN(C(=O)C2CC2)CC1 [Olaparib] (partner 8 µM)
Summary of the method: as §1

Sulindac + Crizotinib = compound: CC1=C(CC(=O)O)c2cc(F)ccc2/C1=C\c1ccc([S+](C)[O-])cc1 [Sulindac] + C[C@@H](Oc1cc(-c2cnn(C3CCNCC3)c2)cnc1N)c1c(Cl)ccc(F)c1Cl [Crizotinib] (partner 1 µM)
Summary of the method: as §1

Cell Line	relative viability ([1]; first compound 0.005 µM)	relative viability ([1]; first compound 0.01581 µM)	relative viability ([1]; first compound 0.05 µM)	relative viability ([1]; first compound 0.1581 µM)	relative viability ([1]; first compound 0.5 µM)	relative viability (Sulindac + Trametinib; first compound 0.08 µM)	relative viability (Sulindac + Trametinib; first compound 0.253 µM)	relative viability (Sulindac + Trametinib; first compound 0.8 µM)	relative viability (Sulindac + Trametinib; first compound 2.53 µM)	relative viability (Sulindac + Trametinib; first compound 8 µM)	relative viability (Staurosporine + Olaparib; first compound 0.005 µM)	relative viability (Staurosporine + Olaparib; first compound 0.01581 µM)	relative viability (Staurosporine + Olaparib; first compound 0.05 µM)	relative viability (Staurosporine + Olaparib; first compound 0.1581 µM)	relative viability (Staurosporine + Olaparib; first compound 0.5 µM)	relative viability (Sulindac + Crizotinib; first compound 0.253 µM)	relative viability (Sulindac + Crizotinib; first compound 0.8 µM)	relative viability (Sulindac + Crizotinib; first compound 2.53 µM)	relative viability (Sulindac + Crizotinib; first compound 8 µM)	relative viability (Sulindac + Crizotinib; first compound 0.08 µM)
NCI-H1666	0.374	0.267	0.322	0.176	0.149	0.895	0.889	0.775	0.924	0.93	0.682	0.567	0.583	0.476	0.432	1.03	0.942	0.949	1.17	–
LOU-NH91	0.521	0.38	0.338	0.277	0.279	0.771	0.826	0.687	0.785	0.836	0.816	0.577	0.572	0.344	0.246	0.768	0.697	0.688	0.75	0.978
LXF-289	0.48	–	0.111	0.0648	0.0482	0.745	0.713	0.666	0.695	0.686	1.1	0.193	0.395	0.164	0.227	0.868	0.776	0.85	0.855	0.844
NCI-H1299	0.121	0.119	0.109	0.0457	0.0455	–	–	–	–	–	0.493	0.263	0.251	0.117	–	0.975	0.866	0.971	1.01	1.06
HARA	0.193	0.23	0.0859	0.0523	0.062	0.516	0.926	0.777	0.715	0.735	0.682	0.363	0.156	0.126	0.131	1.29	–	1.21	1.07	1.1
LU99A	0.187	0.158	0.186	0.122	0.114	0.587	0.585	0.482	0.503	0.687	0.228	0.164	0.141	0.138	0.121	0.515	0.543	0.474	0.57	0.636
201T	0.595	0.451	0.551	0.463	0.42	0.763	0.732	0.717	0.695	0.712	0.834	–	0.749	0.581	0.537	1.03	1.08	1.01	1.13	0.954
HCC-827	1.24	0.812	0.559	0.552	0.43	0.525	0.571	0.526	0.489	0.506	0.666	0.5	0.467	0.322	0.22	0.98	0.942	0.914	0.956	0.927
NCI-H1703	0.223	0.175	0.191	0.163	0.114	–	–	–	–	–	0.269	0.165	0.237	0.112	0.106	0.649	0.824	0.678	0.805	0.561
NCI-H1975	0.209	0.14	0.156	0.103	0.11	0.382	0.38	0.36	0.356	0.367	0.306	0.225	0.165	0.107	0.104	1.07	–	1.01	1.14	1.06
NCI-H2023	0.134	0.106	0.11	0.0886	0.0609	0.62	0.543	0.427	0.493	0.716	0.265	0.192	0.117	0.0758	0.0558	0.429	0.53	0.718	0.685	0.686
ChaGo-K-1	0.692	–	0.52	0.244	–	1.05	0.963	0.817	0.914	0.903	0.43	–	0.342	0.232	0.243	1.17	0.769	1.28	1.31	1.34
COR-L 105	0.303	0.223	0.242	0.26	0.556	0.374	0.472	0.445	0.45	0.449	0.562	0.401	0.326	0.386	0.26	0.901	0.759	0.776	0.911	0.957
NCI-H2170	0.302	0.165	0.232	0.151	0.113	1.24	0.938	0.83	0.936	0.946	0.617	–	0.455	0.223	0.165	1.21	0.771	1.2	1.23	1.21
A549	0.259	0.0929	0.0679	0.061	0.0434	–	–	–	–	–	0.0788	0.0424	0.126	0.034	0.0268	0.783	0.651	0.892	0.924	1.13
NCI-H460	0.316	–	0.228	0.0535	0.0424	0.178	0.195	0.114	0.366	0.132	0.27	0.134	0.159	0.0506	0.0242	1.07	–	0.833	1.19	1.41
NCI-H1993	0.869	0.646	0.66	0.526	0.565	0.472	0.569	0.453	0.444	0.585	0.941	0.73	0.717	0.497	0.313	0.862	0.747	0.86	0.83	0.848
Calu-6	0.584	0.298	0.222	0.0573	0.0441	–	–	–	–	–	0.483	0.294	0.201	0.106	0.092	0.883	0.637	0.853	0.969	0.951
SW 900	–	–	–	–	–	0.847	0.982	–	–	0.945	0.544	0.428	0.362	0.212	0.169	–	–	–	–	–

Cell Line	relative viability ([1]; first compound 0.005 µM)	relative viability ([1]; first compound 0.01581 µM)	relative viability ([1]; first compound 0.05 µM)	relative viability ([1]; first compound 0.1581 µM)	relative viability ([1]; first compound 0.5 µM)	relative viability (Sulindac + Trametinib; first compound 0.08 µM)	relative viability (Sulindac + Trametinib; first compound 0.253 µM)	relative viability (Sulindac + Trametinib; first compound 0.8 µM)	relative viability (Sulindac + Trametinib; first compound 2.53 µM)	relative viability (Sulindac + Trametinib; first compound 8 µM)	relative viability (Staurosporine + Olaparib; first compound 0.005 µM)	relative viability (Staurosporine + Olaparib; first compound 0.01581 µM)	relative viability (Staurosporine + Olaparib; first compound 0.05 µM)	relative viability (Staurosporine + Olaparib; first compound 0.1581 µM)	relative viability (Staurosporine + Olaparib; first compound 0.5 µM)	relative viability (Sulindac + Crizotinib; first compound 0.253 µM)	relative viability (Sulindac + Crizotinib; first compound 0.8 µM)	relative viability (Sulindac + Crizotinib; first compound 2.53 µM)	relative viability (Sulindac + Crizotinib; first compound 8 µM)	relative viability (Sulindac + Crizotinib; first compound 0.08 µM)
NCI-H322M	0.683	0.384	0.312	0.309	0.252	0.474	0.506	0.48	0.5	0.603	0.831	0.691	0.556	0.411	0.345	1.05	0.687	1.03	1.05	1.02
NCI-H2405	0.284	0.135	0.103	0.0688	0.064	0.687	0.668	0.581	0.634	0.731	0.204	0.179	0.14	0.122	0.0873	0.899	0.701	0.85	0.939	0.907
HCC-44	0.147	0.152	0.13	0.133	0.131	1.11	1.13	0.969	1.26	1.02	1.04	–	0.75	0.456	0.351	0.88	0.768	0.9	0.861	0.892
HCC-78	0.212	0.175	0.178	0.223	0.206	0.844	0.865	0.647	0.81	0.824	0.98	0.638	0.654	0.455	0.417	0.326	0.327	0.296	0.401	0.305
COR-L23	0.32	0.148	0.127	0.0645	0.0442	0.653	0.671	0.357	0.548	0.725	0.216	0.189	0.164	0.141	0.0662	0.783	–	0.613	0.82	0.711
NCI-H2009	0.195	0.146	0.182	0.115	0.0836	0.256	0.266	0.283	0.245	0.33	0.532	0.248	0.0909	0.112	0.0765	1.05	1.05	0.985	1.24	1.15
NCI-H3122	0.668	0.306	0.566	0.441	0.118	0.222	0.243	0.203	0.214	0.267	0.575	–	0.481	–	0.281	0.251	0.266	0.232	0.259	0.282
NCI-H2228	0.187	0.139	0.325	0.116	0.0619	0.621	0.675	0.5	0.523	0.364	0.375	0.211	0.18	0.0961	0.0588	0.47	0.519	0.475	0.479	0.504
NCI-H1944	0.295	–	0.26	0.231	0.184	0.476	0.418	0.328	0.421	0.487	0.38	0.226	0.284	0.273	0.261	1.29	0.826	0.952	1.24	0.972
NCI-H1648	–	–	–	–	–	0.379	0.414	–	0.473	0.422	0.893	0.376	0.311	0.257	0.259	–	–	–	–	–
ABC-1	0.256	0.164	0.112	0.0906	0.0638	–	–	–	–	–	0.429	0.289	0.564	0.211	0.213	1.03	0.809	1.19	1.6	1.44
NCI-H1563	0.749	0.594	0.577	0.498	0.433	–	–	–	–	–	–	–	–	–	–	0.92	0.806	0.785	0.888	0.84
NCI-H2342	–	–	–	–	–	0.829	0.81	0.721	0.826	0.825	0.436	0.315	0.363	0.398	0.394	–	–	–	–	–
NCI-H1793	0.534	0.248	0.277	0.191	–	0.352	0.497	–	0.497	0.481	0.815	–	0.3	0.15	0.14	–	–	–	–	–
NCI-H522	–	–	–	–	–	0.628	0.75	0.547	0.747	0.734	0.669	0.685	0.53	0.471	0.429	–	–	–	–	–
EBC-1	0.167	0.112	0.126	0.154	0.139	–	–	–	–	–	0.485	0.184	0.165	0.159	0.149	0.196	–	0.178	0.201	0.188
IA-LM	0.266	0.323	0.256	0.0809	0.0459	–	–	–	–	–	0.562	0.51	0.412	0.215	0.0689	0.804	0.594	0.677	1.12	0.565
NCI-H1395	0.535	0.315	0.475	0.366	0.394	0.966	0.999	0.939	0.949	1.17	0.443	0.395	0.379	0.328	0.274	–	–	–	–	–
